Assay results taken from article PMC3190643 (Journal of medicinal chemistry, 2011).
Counter-ions that a name gives are not always drawn. Like-named read-outs stand apart in the source and are kept apart here.

Assays:
[1] = humans; cited from earlier work
[2] = Metabolic stability in rat liver microsomes; assay type: in vitro ADME; conditions: pH 7.4
[3] = Metabolic stability in mouse liver microsomes; assay type: in vitro ADME; conditions: calculated from in vitro half-life; for CLint scaled at 100 μM: mouse, microsomes, pH 7.4, CLint,app
[4] = test system: Salmonella typhimurium Ames II mixed strains (TA7001 to TA7006) and tester strain TA98; assay: Ames II mutagenicity assay; conditions: with and without rat S9 activation, up to 1 mg/mL
[5] = Metabolic stability in human liver microsomes; assay type: in vitro ADME; conditions: pH 7.4
[6] = in vivo; conditions: male, C57Bl/6J, mouse, iv
[7] = molecular target: T1, Human recombinant active MMP-2 (Homo sapiens, UniProt P08253); conditions: slow-binding
T1 sequence (P08253 110-660): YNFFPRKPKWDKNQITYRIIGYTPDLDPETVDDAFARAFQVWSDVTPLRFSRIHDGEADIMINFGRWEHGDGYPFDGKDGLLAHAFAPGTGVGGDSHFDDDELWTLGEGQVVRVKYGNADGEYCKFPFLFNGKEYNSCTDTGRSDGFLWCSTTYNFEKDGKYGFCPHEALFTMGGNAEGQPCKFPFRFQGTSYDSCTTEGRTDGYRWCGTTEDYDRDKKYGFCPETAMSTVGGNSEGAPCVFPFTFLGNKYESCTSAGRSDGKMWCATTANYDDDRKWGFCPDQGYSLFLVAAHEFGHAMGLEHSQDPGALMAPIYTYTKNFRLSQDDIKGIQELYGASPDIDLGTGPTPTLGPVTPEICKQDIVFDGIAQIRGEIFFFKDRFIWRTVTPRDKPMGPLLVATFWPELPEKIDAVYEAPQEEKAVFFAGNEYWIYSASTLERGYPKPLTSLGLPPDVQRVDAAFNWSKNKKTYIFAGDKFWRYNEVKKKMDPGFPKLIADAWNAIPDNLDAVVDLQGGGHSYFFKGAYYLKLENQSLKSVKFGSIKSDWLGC

[8] = molecular target: catalytic domain of human recombinant MMP-9 (Homo sapiens, UniProt P14780); conditions: slow-binding
[9] = for plasma concentration: IV dose of 3, mice, normalized to 8.13 mg/kg
[10] = cited from earlier work
[11] = molecular target: catalytic domain of MMP-14 (Homo sapiens, UniProt P50281); conditions: slow-binding
[12] = t½ α (distribution half life), IV dose of 5d […], mice
[13] = t½ β (terminal half life), IV dose of 5d […], mice

catalytic domain of human recombinant MMP-9, sequence (P14780 107-444 limits assumed): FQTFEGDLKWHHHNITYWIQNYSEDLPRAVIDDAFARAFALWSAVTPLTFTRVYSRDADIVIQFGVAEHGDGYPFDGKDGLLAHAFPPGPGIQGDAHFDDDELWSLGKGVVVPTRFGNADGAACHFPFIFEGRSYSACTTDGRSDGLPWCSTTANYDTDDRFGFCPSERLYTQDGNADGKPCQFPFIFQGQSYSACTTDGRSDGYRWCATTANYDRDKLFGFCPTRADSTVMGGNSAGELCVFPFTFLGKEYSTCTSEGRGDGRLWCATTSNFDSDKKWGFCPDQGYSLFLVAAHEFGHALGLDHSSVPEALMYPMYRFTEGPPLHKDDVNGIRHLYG

## CC(C)c1cccc(C(C)C)c1O [propofol]
[1]
  Vd: 12.4 L/kg

## N=C(N)NCCC[C@H](N)C(=O)Nc1ccc(Oc2ccc(S(=O)(=O)CC3CS3)cc2)cc1 (stereo partly drawn) [Compound 5d]
[2]
  CLint scaled at 100 μM: 23.7 ± 1.8 mL/min/kg
  half-life at 100 μM: ≥ 60 min
[3]
  CLint scaled at 100 μM: < 47 mL/min/kg
[4]
  Ames II mutagenicity response: negative (non-mutagenic)
[5]
  CLint scaled at 100 μM: < 10 mL/min/kg
[6]
  Vd: 0.0978 L/kg
  clearance: 58.2 mL/min/kg
[6]; elimination (terminal) half life t½ β, IV dose of 5d […], mice
  half-life: > 240 min
[6]; [12]
  half-life: < 1 min
[6]; [13]
  half-life: 260 min

## NCCCC[C@H](N)C(=O)Nc1ccc(Oc2ccc(S(=O)(=O)CC3CS3)cc2)cc1 (stereo partly drawn) [Compound 5b]
[7]
  10^4koff, MMP-2: 2.1 ± 0.9 s^−1
  10^−3kon, MMP-2: 3.4 ± 0.1 M^−1s^−1
[8]
  10^4koff, MMP-9 catalytic domain: 4.2 ± 0.7 s^−1
  10^−3kon, MMP-9 catalytic domain: 0.27 ± 0.04 M^−1s^−1

## N[C@@H](CCC(=O)O)C(=O)Nc1ccc(Oc2ccc(S(=O)(=O)CC3CS3)cc2)cc1 (stereo partly drawn) [Compound 5c]
[7]
  10^4koff, MMP-2: 1.8 ± 1.6 s^−1
  10^−3kon, MMP-2: 2.5 ± 0.1 M^−1s^−1
[8]
  10^4koff, MMP-9 catalytic domain: 12.0 ± 0.7 s^−1
  10^−3kon, MMP-9 catalytic domain: 0.28 ± 0.02 M^−1s^−1

## Nc1ccc(Oc2ccc(S(=O)(=O)CC3CS3)cc2)cc1 (stereo not drawn) [Compound 3, 4-[4-((Thiiran-2-yl)methylsulfonyl)phenoxy]benazamine · HCl salt]
[2]
  CLint scaled at 100 μM: 60 ± 1.8 mL/min/kg
[3]
  CLint,app: 102.8 ± 7.9 mL/min/kg
  CLint scaled at 100 μM: 103 mL/min/kg
[4]
  Ames II mutagenicity response: negative (non-mutagenic)
[5]
  CLint scaled at 100 μM: < 10 mL/min/kg
[6]
  Vd: 0.0125 L
  clearance: 87.5 mL/min/kg
[6]; [12]
  half-life: 2.9 min
[6]; [13]
  half-life: 69 min
[9]; male, C57Bl/6J, mouse, in vivo
  time plasma levels were higher than the Ki for MMP-9: 20 min

## O=S(=O)(CC1CS1)c1ccc(Oc2ccccc2)cc1 (stereo not drawn) [Compound 1, (4-phenoxyphenylsulfonyl)methylthiirane]
[10]
  intrinsic clearance in the rat: 117 mL/min/kg
  t½ in rat liver microsomes: 12.0 min

## NCC(=O)Nc1ccc(Oc2ccc(S(=O)(=O)CC3CS3)cc2)cc1 (stereo not drawn) [Compound 5a]
[7]
  10^4koff, MMP-2: 8.2 ± 0.9 s^−1
  10^−3kon, MMP-2: 1.9 ± 0.6 M^−1s^−1
[8]
  10^4koff, MMP-9 catalytic domain: 6.5 ± 0.6 s^−1
  10^−3kon, MMP-9 catalytic domain: 0.21 ± 0.04 M^−1s^−1

## CC(=O)Nc1ccc(Oc2ccc(S(=O)(=O)CC3CS3)cc2)cc1 (stereo not drawn) [Compound M3]
[6]; [12]
  half-life: 12 min
[6]; t½ α, IV dose of 3, mice
  half-life: 5.1 min
[9]; 2-3 min
  plasma concentration: 197 ± 61.6 nM
[9]; 4-5 min
  plasma concentration: 462 ± 313 nM
[9]; 7-8 min
  plasma concentration: 192 ± 12.1 nM
[9]; 11-12 min
  plasma concentration: 150 ± 27.2 nM
[9]; 62-66 min
  plasma concentration: 27.3 ± 6.28 nM

## Nc1ccc(Oc2ccc(S(=O)(=O)CC3CS3)cc2)cc1O (stereo not drawn) [Compound 13, 2-Amino-5-(4-((thiiran-2-ylmethyl)sulfonyl)phenoxy)phenol]
[11]
  10^4koff, MMP-14 catalytic domain: 7.0 ± 1.6 s^−1
  10^−3kon, MMP-14 catalytic domain: 2.7 ± 0.3 M^−1 s^−1
[7]
  10^4koff, MMP-2: 1.4 ± 0.7 s^−1
  10^−3kon, MMP-2: 1.7 ± 0.1 M^−1s^−1
[8]
  10^4koff, MMP-9 catalytic domain: 5.3 ± 1.0 s^−1
  10^−3kon, MMP-9 catalytic domain: 1.1 ± 0.1 M^−1s^−1
